From US11370785B2, “Multicyclic compounds as farnesoid X receptor modulators” (BRISTOL-MYERS SQUIBB COMPANY, priority 2017, dated 2022)
Where two headings read alike, the source gives them in different places.

Key:
[1] = system: Fgf15; assay: Acute mouse in vivo assay, Fgf15 gene expression in ileum; conditions: 3 mg/kg single oral dose, @ 6 h
Description: Acute Mouse In Vivo Assay:
Male, C57BL6/NTac mice, weighing 25-28 g, are purchased from Taconic Labs (Hudson, N.Y.) and maintained on Teklad Global 18% Protein Rodent Diet (Harlan Laboratories). After 1 week acclimation, mice are sorted into groups based upon body weight. Mice are administered a single oral dose of vehicle or experimental compound. Systemic compound exposure is evaluated in plasma derived from blood collected via the submandibular vein at 1 hour post-dose, and at study termination (6 h). At study termination, the animals are euthanized and rapidly dissected. The medial lobe of the liver is divided, with one half being homogenized and analyzed for compound exposure, and the other half saved in RNAlater (Thermo-Fisher Scientific). The ileum is also dissected and preserved in RNAlater. Tissue samples in RNAlater are homogenized with MP Biomedicals' beads. […] RNA Concentration is determined with the Nano-Drop 8000 Spectrophotometer (Thermo Fisher). […] Mouse genes analyzed include Nr0b2 (which encodes the small heterodimer partner, SHP), Abcb11 (which encodes the bile salt excretion pump, BSEP), Cyp7a1, & Cyp8b1 in liver, and Fgf15, Fabp6 (which encodes ileal bile acid binding protein, I-BABP), Slc51a (which encodes organic solute transporter alpha subunit, OSTA), and Slc51b (which encodes organic solute transporter beta subunit, OSTB) in the ileum. […]

[2] = target: T1, human FXR (Homo sapiens, UniProt Q96RI1); assay: transient human FXR/Gal4-luciferase reporter assay; type: cell-based; conditions: Gal4-hFXR reporter in HEK293 cells
T1 construct: expressed in transfected cells; host or cells: HEK293 cells stably carrying a 5xGal4-response-element firefly luciferase reporter, transiently transfected with the pcDNA3.1-Gal4-FXR plasmid
T1 sequence (Q96RI1 262-486 limits assumed): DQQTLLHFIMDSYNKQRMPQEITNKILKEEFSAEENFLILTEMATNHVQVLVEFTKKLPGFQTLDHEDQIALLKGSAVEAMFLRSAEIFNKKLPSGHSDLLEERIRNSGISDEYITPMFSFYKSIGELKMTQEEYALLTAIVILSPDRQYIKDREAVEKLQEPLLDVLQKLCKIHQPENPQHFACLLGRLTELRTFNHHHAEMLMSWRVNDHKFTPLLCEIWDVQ
Method in brief: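 HEK293 cells stably carrying a 5×Gal4-response-element firefly luciferase reporter, transiently transfected with a CMV-driven Gal4 DNA-binding domain–human FXR ligand-binding domain fusion, were treated overnight at 37 °C with serially diluted compounds. Luminescence was read by Steady-Glo; DMSO background was subtracted and signal expressed as percent of the 8 μM GW-4064 response.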

[3] = relative to 8 μM GW-4064, read-out: FXR EC50

| SMILES | EC50 [2, 3] [nM] | also measured |
| --- | --- | --- |
| O=C(O)c1cc(C(F)(F)F)c2cc(N3CCC4(CC3)CC(Cc3c(-c5ccccc5C(F)(F)F)noc3C3CC3)C4)ccc2n1 [Example 4, 6-(2-((5-Cyclopropyl-3-(2-(trifluoromethyl)phenyl)isoxazol-4-yl)methyl)-7-azaspiro[3.5]nonan-7-yl)-4-(trifluoromethyl)quinoline-2-carboxylic acid] | – | Fgf15 expression, fold increase relative to vehicle control [1]: +24 x; EC50 ([2]; read-out: HLE GAL-FXR EC50): 26 nM |
| COc1cc(N2CCC3(CC2)CC(Cc2c(-c4c(Cl)cccc4Cl)noc2C2CC2)C3)ccc1OCC(=O)O [Example 93] | 505 | – |
| COc1cc(C(=O)O)nc2ccc(N3CCC4(CC3)CC(=Cc3c(-c5c(Cl)cncc5Cl)noc3C3CC3)C4)cc12 [Example 76] | 14 | – |
| Cc1cccc(Cl)c1-c1noc(C2CC2)c1C=C1CC2(CCN(S(=O)(=O)c3ccc(C(=O)O)cc3)CC2)C1 [Example 10, 4-((2-((3-(2-Chloro-6-methylphenyl)-5-cyclopropylisoxazol-4-yl)methylene)-7-azaspiro[3.5]nonan-7-yl)sulfonyl)benzoic acid] | – | EC50 ([2]; read-out: HLE GAL-FXR EC50): 321 nM |
| Cn1cc(C(=O)O)c2ccc(N3CCC4(CC3)CC(=Cc3c(-c5ccccc5OC(F)(F)F)noc3C3CC3)C4)nc21 [Example 28] | 229 | – |
| CCOc1cc(C(=O)O)nc2ccc(N3CCC4(CC3)CC(Cc3c(-c5ccccc5C(F)(F)F)noc3C3CC3)C4)cc12 [Example 99] | 17 | – |
| O=C(O)c1ccc2cc(N3CCC4(CC3)CC(=Cc3c(-c5c(Cl)cccc5Cl)noc3C3CC3)C4)ccc2n1 [Example 2, 6-(2-((5-Cyclopropyl-3-(2,6-dichlorophenyl)isoxazol-4-yl)methylene)-7-azaspiro[3.5]nonan-7-yl)quinoline-2-carboxylic acid] | – | EC50 ([2]; read-out: HLE GAL-FXR EC50): 47 nM |
| O=C(O)C1(c2ccc(N3CCC4(CC3)CC(=Cc3c(-c5c(Cl)cccc5Cl)noc3C3CC3)C4)cc2)CC1 [Example 46] | 391 | – |
| O=C(O)c1ccc2cc(N3CCC4(CC3)CC(=Cc3c(-c5ccccc5C(F)(F)F)noc3C(F)(F)F)C4)ccc2n1 [Example 193] | 502 | – |
| CC(C)Oc1cc(C(=O)O)nc2ccc(N3CCC4(CC3)CC(=Cc3c(-c5ccccc5C(F)(F)F)noc3C3CC3)C4)cc12 [Example 83] | 5 | – |
| O=C(O)c1ncc(N2CCC3(CC2)CC(Cc2c(-c4ccccc4C(F)(F)F)noc2C2CC2)C3)cc1C(F)(F)F [Example 156] | 1670 | – |
| COc1cc(C(=O)O)nc2ccc(N3CCC4(CC3)CC(=Cc3c(C(C5CC5)C5CC5)noc3C3CC3)C4)cc12 [Example 107] | 1550 | – |

Continued, in another order:

| EC50 [2, 3] [nM] | SMILES | also measured |
| --- | --- | --- |
| 461 | O=C(O)COc1ccc(N2CCC3(CC2)CC(=Cc2c(-c4c(Cl)cccc4Cl)noc2C2CC2)C3)cc1 [Example 61] | – |
| 23 | O=C(O)c1cc(C(F)(F)F)c2cc(N3CCC4(CC3)CC(=Cc3c(-c5ccccc5OC(F)(F)F)noc3C3CC3)C4)ccc2n1 [Example 25] | – |
| 6 | O=C(O)c1cc(OCC(F)F)c2cc(N3CCC4(CC3)CC(Cc3c(-c5ccccc5C(F)(F)F)noc3C3CC3)C4)ccc2n1 [Example 149] | – |
| 472 | O=C(O)c1cc(OCCO)c2cc(N3CCC4(CC3)CC(Cc3c(-c5ccccc5C(F)(F)F)noc3C3CC3)C4)ccc2n1 [Example 94] | – |
| 53 | Cc1cc(C(=O)O)cc2sc(N3CCC4(CC3)CC(=Cc3c(-c5c(Cl)cncc5Cl)noc3C3CC3)C4)nc12 [Example 89] | – |
| 2190 | O=C(O)c1cccc(N2CCC3(CC2)CC(Cc2c(-c4c(Cl)cccc4Cl)noc2C2CC2)C3)n1 [Example 12] | – |
| 450 | O=C(O)c1cc(OCCO)c2cc(N3CCC4(CC3)CC(=Cc3c(-c5ccccc5C(F)(F)F)noc3C3CC3)C4)ccc2n1 [Example 92] | – |
| 1080 | Clc1cccc(Cl)c1-c1noc(C2CC2)c1C=C1CC2(CCN(c3cccc(-c4nn[nH]n4)c3)CC2)C1 [Example 51] | – |
| 120 | COCc1onc(-c2c(Cl)cncc2Cl)c1C=C1CC2(CCN(c3nc4c(F)cc(C(=O)O)cc4s3)CC2)C1 [Example 155] | – |
| 34 | O=C(O)c1cc(OCC2CC2)c2cc(N3CCC4(CC3)CC(=Cc3c(-c5ccccc5OC(F)(F)F)noc3C3CC3)C4)ccc2n1 [Example 87] | – |
| 4 | COc1cc(C(=O)O)nc2ccc(N3CCC4(CC3)CC(=Cc3c(-c5c(Cl)cccc5Cl)noc3C(F)(F)F)C4)cc12 [Example 140] | – |
| 4 | O=C(O)c1cc(OC2CCC2)c2cc(N3CCC4(CC3)CC(=Cc3c(-c5ccccc5C(F)(F)F)noc3C3CC3)C4)ccc2n1 [Example 108] | – |
| 64 | O=C(O)c1cc(OC2CCC2)c2cc(N3CCC4(CC3)CC(=Cc3c(-c5ccccc5OC(F)(F)F)noc3C3CC3)C4)ccc2n1 [Example 115] | – |
